Biological target: T1, Kir3.1/3.4 (Rattus norvegicus, UniProt P48548+P63251)
T1 construct: expressed in transfected cells
T1 sequence (P63251 1-501): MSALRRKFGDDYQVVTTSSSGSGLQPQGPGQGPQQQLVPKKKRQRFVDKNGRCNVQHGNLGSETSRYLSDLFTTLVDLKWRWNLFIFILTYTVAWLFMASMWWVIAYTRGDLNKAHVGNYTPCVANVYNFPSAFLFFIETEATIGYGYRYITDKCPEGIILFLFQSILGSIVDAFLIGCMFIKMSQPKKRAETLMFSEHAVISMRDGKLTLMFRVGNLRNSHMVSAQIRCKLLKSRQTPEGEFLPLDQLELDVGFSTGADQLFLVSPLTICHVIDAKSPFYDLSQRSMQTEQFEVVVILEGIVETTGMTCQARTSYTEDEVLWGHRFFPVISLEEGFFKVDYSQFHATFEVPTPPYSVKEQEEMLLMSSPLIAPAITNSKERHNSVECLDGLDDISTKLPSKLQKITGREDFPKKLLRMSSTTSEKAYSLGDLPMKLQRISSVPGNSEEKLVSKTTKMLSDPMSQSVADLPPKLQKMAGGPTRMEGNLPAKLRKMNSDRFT
T1 sequence (P48548 1-419): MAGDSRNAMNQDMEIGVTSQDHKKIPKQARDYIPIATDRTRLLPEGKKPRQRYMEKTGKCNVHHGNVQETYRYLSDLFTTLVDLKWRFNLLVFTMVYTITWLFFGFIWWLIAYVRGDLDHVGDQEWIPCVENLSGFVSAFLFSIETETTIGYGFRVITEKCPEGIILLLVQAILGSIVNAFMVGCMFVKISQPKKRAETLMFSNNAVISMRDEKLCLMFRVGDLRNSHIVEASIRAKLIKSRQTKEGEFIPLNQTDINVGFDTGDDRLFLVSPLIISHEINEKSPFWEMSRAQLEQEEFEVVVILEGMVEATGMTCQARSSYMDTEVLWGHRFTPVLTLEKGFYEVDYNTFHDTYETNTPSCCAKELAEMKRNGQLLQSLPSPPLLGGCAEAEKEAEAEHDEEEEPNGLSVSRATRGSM
Experiment: Kir3.1/3.4 Electrophysiology Method (manual whole-cell patch clamp)
Assay type: cell-based
Details: Electrophysiology Method (TABLE 1)
In short: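 Manual whole-cell patch clamp on HEK293 cells stably expressing rat Kir3.1/3.4, with GTPγS in the pipette. Cells were held at −60 mV and stepped to +60 mV, then ramped to −140 mV every 10 s. Steady-state inhibition at −140 mV was measured after subtracting leak recorded in zero-K+ bath.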

| Compound | IC50 |
| --- | --- |
| COCC1CCN(c2nc(N(CCO)CCN3CCCC3)nc3scc(-c4ccccc4)c23)CC1 [Example 185] | < 500 nM |
| c1cc(-c2csc3ncnc(N4CCC(COCCN5CCCC5)CC4)c23)ccn1 [Example 311] | 500 to 3000 nM |
| N#Cc1sc2nccc(N3CCC(COCCN4CCCC4)CC3)c2c1-c1ccccc1 [Example 144] | < 500 nM |
| F[C@@H]1CCN(CCOCC2CCN(c3ncnc4scc(-c5ccccc5)c34)CC2)C1 [Example 32, 4-[4-[2-[(3R)-3-fluoropyrrolidin-1-yl]ethoxymethyl]-1-piperidyl]-5-phenyl-thieno[2,3-d]pyrimidine] | < 500 nM |
| N,N-dimethyl-5-phenyl-thieno[2,3-d]pyrimidine-6-carboxamide [Example 339] | < 500 nM |
| CN1CCC(N(C)CC2CCN(c3nc(N4CCC(C(N)=O)C4)nc4scc(-c5ccccc5)c34)CC2)C1 (stereo not shown) [Example 120, 1-[4-[4-[[methyl-(1-methylpyrrolidin-3-yl)amino]methyl]-1-piperidyl]-5-phenyl-thieno[2,3-d]pyrimidin-2-yl]pyrrolidine-3-carboxamide] | < 500 nM |
| Cc1csc2ncnc(N3CCC(CNCCC4CCCN4C)CC3)c12 (stereo not shown) [Example 243] | < 500 nM |
| NC1CCCN(CC2CCN(c3ncnc4scc(-c5ccccc5)c34)CC2)C1 (stereo not shown) [Example 211] | < 500 nM |
| CN(C)CCN(C)CC1CCN(c2ncnc3scc(-c4ccccc4)c23)CC1 [Example 71, N,N,N′-trimethyl-N′-[[1-(5-phenylthieno[2,3-d]pyrimidin-4-yl)-4-piperidyl]methyl]ethane-1,2-diamine] | < 500 nM |
| CC(C)(C)NCC1CC2CCC(C1)N2c1ncnc2scc(-c3ccccc3)c12 (stereo not shown) [Example 333] | < 500 nM |
| OCC1CC2CCC(C1)N2c1nc(N2CCOCC2)c2c(-c3ccccc3)csc2n1 (stereo not shown) [Example 165, [8-(4-morpholino-5-phenyl-thieno[2,3-d]pyrimidin-2-yl)-8-azabicyclo[3.2.1]octan-3-yl]methanol] | 500 to 3000 nM |
| c1ccc(-c2csc3ncnc(N4CC[C@H](COCCN5CCCC5)C4)c23)cc1 [Example 263] | < 500 nM |
| C(#Cc1ncnc2scc(-c3ccccc3)c12)COCCN1CCCC1 [Example 161, 5-Phenyl-4-[3-(2-pyrrolidinyl-1-ylethoxy)prop-1-ynyl]thieno[2,3-d]pyrimidine] | < 500 nM |
| CC(NC1CC1)C1CCN(c2ncnc3scc(-c4ccccc4)c23)CC1 (stereo not shown) [Example 96, N-[1-[1-(5-phenylthieno[2,3-d]pyrimidin-4-yl)-4-piperidyl]ethyl]cyclopropanamine] | < 500 nM |
| CN1CCC(N(C)CC2CCN(c3nc(N4CCCC(C(N)=O)C4)nc4scc(-c5ccccc5)c34)CC2)C1 (stereo not shown) [Example 238] | < 500 nM |
| CC(C)NC(=O)c1sc2ncnc(N3CCC(COCCN4CCCC4)CC3)c2c1-c1ccccc1 [Example 139, N-isopropyl-5-phenyl-4-[4-(2-pyrrolidin-1-ylethoxymethyl)-1-piperidyl]thieno[2,3-d]pyrimidine-6-carboxamide] | < 500 nM |
| CC(C)NC(=O)c1sc2ncnc(N3C4CCC3CC(N3CCCC3)C4)c2c1-c1ccccc1 (stereo not shown) [Example 354] | < 500 nM |
| CCOc1ncccc1-c1csc2ncnc(N3CCC(COCCN4CCCC4)CC3)c12 [Example 331] | < 500 nM |
| c1ccc(-c2csc3nc(OC4CC5CC4CN5)nc(N4C5CCC4COC5)c23)cc1 (stereo not shown) [Example 349, 8-[2-(2-azabicyclo[2.2.1]heptan-5-yloxy)-5-phenyl-thieno[2,3-d]pyrimidin-4-yl]-3-oxa-8-azabicyclo[3.2.1]octane] | < 500 nM |
| CN(C)S(=O)(=O)c1ccc(-c2csc3ncnc(N4CCC(COCCN5CCCC5)CC4)c23)cc1 [Example 44, N,N-dimethyl-4-[4-[4-(2-pyrrolidin-1-ylethoxymethyl)-1-piperidyl]thieno[2,3-d]pyrimidin-5-yl]benzenesulfonamide] | 500 to 3000 nM |
| CC(=O)N(C)C1CCN(c2nc(N3CCC(CN(C)C4CCN(C)C4)CC3)c3c(-c4ccccc4)csc3n2)CC1 (stereo not shown) [Example 241] | < 500 nM |
| CC(C)c1csc2ncnc(N3CC4CC3CC4OCCN3CCCC3)c12 (stereo not shown) [Example 288] | < 500 nM |

| Compound | IC50 |
| --- | --- |
| c1ccc(-c2csc3ncnc(N4CCC(COCCN5CCCC5)CC4)c23)cc1 [Example 5, 5-phenyl-4-[4-(2-pyrrolidin-1-ylethoxymethyl)-1-piperidyl]thieno[2,3-d]pyrimidine] | < 500 nM |
| N[C@H]1CCCN(CC2CCN(c3ncnc4scc(-c5ccccc5)c34)CC2)C1 [Example 90, (3S)-1-[[1-(5-phenylthieno[2,3-d]pyrimidin-4-yl)-4-piperidyl]methyl]piperidin-3-amine] | < 500 nM |
| CC(C)NCC1CCN(c2ncnc3scc(C4CCCCC4)c23)CC1 [Example 196] | < 500 nM |
| C=CCNCC1CCN(c2ncnc3scc(-c4ccccc4)c23)CC1 [Example 94, N-[[1-(5-phenylthieno[2,3-d]pyrimidin-4-yl)-4-piperidyl]methyl]prop-2-en-1-amine] | < 500 nM |
| c1ccc(-c2csc3ncnc(N4C5CCC4CC(COCCN4CCCC4)C5)c23)cc1 (stereo not shown) [Example 286] | < 500 nM |
| OCCNc1nc(N2CCC(CCO)CC2)c2c(-c3ccc(F)cc3)csc2n1 [Example 171] | 500 to 3000 nM |
| CN(C)C1CCCN(CC2CCN(c3ncnc4scc(-c5ccc(F)cc5)c34)CC2)C1 (stereo not shown) [Example 79, 1-[[1-[5-(4-fluorophenyl)thieno[2,3-d]pyrimidin-4-yl]-4-piperidyl]methyl]-N,N-dimethyl-piperidin-3-amine] | < 500 nM |
| CC(C)c1csc2ncnc(N3CCC(CNCCC4CCCN4C)CC3)c12 (stereo not shown) [Example 242] | < 500 nM |
| CN1CCCC1CCOCC1CCN(c2nc(N3CCC(C(N)=O)C3)nc3scc(-c4ccccc4)c23)CC1 (stereo not shown) [Example 255] | < 500 nM |
| COCC1CCN(c2nc(N3CCN(C)CC3)nc3scc(-c4ccccc4)c23)CC1 [Example 174] | < 500 nM |
| CCN(CC)C(=O)C1CCCN(c2nc(N3CCC(CN(C)C4CCN(C)C4)CC3)c3c(-c4ccccc4)csc3n2)C1 (stereo not shown) [Example 228] | < 500 nM |
| c1ccc(-c2csc3ncnc(N4C5CCC4CC(CNC4CCC4)C5)c23)cc1 (stereo not shown) [Example 323] | < 500 nM |
| c1ccc(-c2csc3ncnc(N4CCC(CNC5CC5)CC4)c23)cc1 [Example 74, N-[[1-(5-phenylthieno[2,3-d]pyrimidin-4-yl)-4-piperidyl]methyl]cyclopropanamine] | < 500 nM |
| CN(C)C(=O)c1cccc(-c2csc3ncnc(N4CCC(COCCN5CCCC5)CC4)c23)c1 [Example 332] | 500 to 3000 nM |
| COCC1CCN(c2nc(N(C)C3CCN(C)C3)nc3scc(-c4ccccc4)c23)CC1 (stereo not shown) [Example 193] | < 500 nM |
| CC(C)c1csc2ncnc(N3CC4CC3CC4OCCN3CC[C@@H](F)C3)c12 (stereo partly shown) [Example 295] | < 500 nM |
| CN1CCC(N(C)C2CCN(c3ncnc4scc(-c5ccccc5)c34)CC2)C1 (stereo not shown) [Example 231] | < 500 nM |
| COCC1CCN(c2nc(NCCC3CCCN3C)nc3scc(C4CCCCC4)c23)CC1 (stereo not shown) [Example 177] | 500 to 3000 nM |
| c1ccc(-c2csc3ncnc(N4CCC(COC5CCOC5)CC4)c23)cc1 (stereo not shown) [Example 16, 5-phenyl-4-[4-(tetrahydrofuran-3-yloxymethyl)-1-piperidyl]thieno[2,3-d]pyrimidine] | 500 to 3000 nM |
| CC(C)Oc1ncccc1-c1csc2ncnc(N3CCC(COCCN4CCCC4)CC3)c12 [Example 328] | < 500 nM |
| CN1CCC(N(C)CC2CCN(c3ncnc4sc(Br)c(-c5ccccc5)c34)CC2)C1 (stereo not shown) [Example 266] | < 500 nM |
